From ChEMBL document CHEMBL5244219, “Recent developments of quinolone-based derivatives and their activities against Escherichia coli” (Eur J Med Chem, 2018)
Values after ≈ are worked out from the molar mass of the structure shown. Values belong to the molecule of their own block, whether it stands above or below them.

Key:
Escherichia coli [1] = experiment: In vivo antibacterial activity against Escherichia coli infected in sc dosed CD-1 mouse assessed as bacterial growth inhibition; format: functional; conditions: read-out: PD50
Escherichia coli [2] = experiment: In vivo antibacterial activity against Escherichia coli infected in po dosed CD-1 mouse assessed as bacterial growth inhibition; format: functional; conditions: read-out: PD50
Escherichia coli [3] = experiment: Antibacterial activity against Escherichia coli assessed as bacterial growth inhibition; format: functional
Escherichia coli [4] = experiment: Antibacterial activity against Escherichia coli ATCC 700603 assessed as bacterial growth inhibition by agar dilution method; format: functional
Escherichia coli [5] = experiment: Potency index, ratio of clinafloxacin MIC to compound IC50 for antibacterial activity against Escherichia coli ATCC 700603; format: functional
Escherichia coli [6] = experiment: Potency index, ratio of norfloxacin MIC to compound IC50 for antibacterial activity against Escherichia coli ATCC 700603; format: functional
Escherichia coli [7] = experiment: Potency index, ratio of ciprofloxacin MIC to compound IC50 for antibacterial activity against Escherichia coli ATCC 700603; format: functional
Escherichia coli [8] = experiment: Potency index, ratio of chloromycin MIC to compound IC50 for antibacterial activity against Escherichia coli ATCC 700603; format: functional
Escherichia coli [9] = experiment: Antibacterial activity against Escherichia coli assessed as bacterial growth inhibition measured after 18 hrs by two-fold serial dilution method; format: functional
Escherichia coli [10] = experiment: Antibacterial activity against Escherichia coli ATCC 25922 infected in iv dosed rat assessed as log reduction in bacterial count in lung homogenate at 5 mg/kg; format: functional
Escherichia coli [11] = experiment: Antibacterial activity against Escherichia coli ATCC 25922 infected in iv dosed mouse assessed as bacterial growth inhibition; format: functional
Escherichia coli [12] = experiment: Antibacterial activity against nalidixic acid resistant Escherichia coli assessed as bacterial growth inhibition; format: functional
Escherichia coli [13] = experiment: Antibacterial activity against Escherichia coli KC-14 infected in po dosed mouse assessed as bacterial growth inhibition; format: functional
[14] = Acute toxicity in iv dosed mouse assessed as lethal dose; format: organism-based; conditions: in vivo
Escherichia coli [15] = experiment: Antibacterial activity against Escherichia coli ATCC 8739 assessed as bacterial growth inhibition by agar dilution method; format: functional
Escherichia coli [16] = experiment: Antibacterial activity against Escherichia coli KC-14 assessed as bacterial growth inhibition; format: functional
Escherichia coli [17] = experiment: Antibacterial activity against Escherichia coli assessed as zone of inhibition at 5 ug per disc; format: functional; conditions: read-out: DIZ
Escherichia coli [18] = experiment: Antibacterial activity against Escherichia coli K-12 C600 assessed as bacterial growth inhibition; format: functional
Escherichia coli [19] = experiment: Potency index, ratio of ceftazidime MIC to compound IC50 for antibacterial activity against Escherichia coli DC2; format: functional
[20] = Protein binding in marmoset plasma; format: ADME, cell-free, Callithrix jacchus; conditions: read-out: PPB (converted)
Escherichia coli [21] = experiment: Antibacterial activity against Escherichia coli DC0 assessed as bacterial growth inhibition by agar dilution method; format: functional
[22] = Half life in marmoset at 3 mg/kg, iv; format: ADME, organism-based; conditions: callitrichinae sp., in vivo
Escherichia coli [23] = experiment: Antibacterial activity against Escherichia coli DC2 assessed as bacterial growth inhibition by agar dilution method; format: functional
[24] = AUC in marmoset at 3 mg/kg, iv; format: ADME, organism-based; design: dose 3 mg/kg, route iv; conditions: callitrichinae sp., in vivo
Escherichia coli [25] = experiment: Potency index, ratio of ceftazidime MIC to compound IC50 for antibacterial activity against Escherichia coli DC0; format: functional
[26] = Escherichia coli, KC-14, po, read-out: ED50

Compound: CCn1cc(C(=O)O)c(=O)c2cc(F)c(N3CCC4(CCN(C)C4)C3)cc21 (configuration not stated)
ED50 (Escherichia coli [1]): 8.4 mg/kg | ED50 (Escherichia coli [2]): 3.4 mg/kg | MIC (Escherichia coli [3]): 0.006 µg/mL (≈ 0.0161 µM)

MIC (Escherichia coli [4]): 0.5 µg/mL (≈ 0.789 µM)
Compound: Cc1nc(N2CCOCC2)c([N+](=O)[O-])n1CC(O)CNC1CCN(c2c(F)cc3c(=O)c(C(=O)O)cn(C4CC4)c3c2Cl)C1 (configuration not stated)
Ratio (Escherichia coli [5]): 2 | Ratio (Escherichia coli [6]): 2 | Ratio (Escherichia coli [7]): 2 | Ratio (Escherichia coli [8]): 2

MIC (Escherichia coli [9]): 0.002 µg/mL (≈ 0.00547 µM)
Compound: CC(C)(CF)n1cc(C(=O)O)c(=O)c2cc(F)c(N3CC[C@H](N)C3)cc21

Compound: CN1CCN(c2cc3c(cc2F)c(=O)c(C(=O)O)cn3-c2ccc(OP(=O)(O)O)cc2)CC1
log(activity) (Escherichia coli [10]): 2 | ED50 (Escherichia coli [11]): 0.74 mg/kg

Compound: CN1CCN(c2c(F)cc3c(=O)c(C(=O)O)c4scc5n4c3c2OC5)CC1
MIC (Escherichia coli [12]): 0.2 µg/mL (≈ 0.514 µM) | ED50 (Escherichia coli [13]; [26]): 1.01 mg/kg | LD50 [14]: 237 mg/kg

MIC (Escherichia coli [15]): 0.049 µg/mL (≈ 0.115 µM)
Compound: CCn1cc(C(=O)O)c(=O)c2cc(F)c(N3CCN(CC(=O)c4ccoc4)CC3)cc21

Compound: CC1COc2c(N3CCN(C)CC3)c(F)cc3c(=O)c(C(=O)O)cn1c23 (configuration not stated) [OFLOXACIN]
MIC (Escherichia coli [16]): 0.1 µg/mL (≈ 0.277 µM) | ED50 (Escherichia coli [13]): 0.55 mg/kg | ED50 (Escherichia coli [13]; [26]): 1.1 mg/kg | zone of inhibition at 5 µg/disc (Escherichia coli [17]): 22 mm | MIC (Escherichia coli [18]): 0.2 µg/mL (≈ 0.553 µM)

Compound: CCn1cc(C(=O)NCC2=C(C(=O)O)N3C(=O)[C@@H](NC(=O)/C(=N\OC(C)(C)C(=O)O)c4csc(N)n4)C3SC2)c(=O)c2cc(O)c(O)cc21 (stereo in doubt)
Ratio (Escherichia coli [19]): 8 | fraction unbound [20]: 0.008 | MIC (Escherichia coli [21]): 0.008 µg/mL (≈ 0.0112 µM) | half-life [22]: 3.47 h | MIC (Escherichia coli [23]): 0.008 µg/mL (≈ 0.0112 µM) | AUC [24]: 238 µg·h/mL | Ratio (Escherichia coli [25]): 8
